Measurements from patent publication US10329309B2, “3-(3H-imidazo[4,5-B]pyridin-2-yl)-1H-pyrazolo[4,3-B]pyridines and therapeutic uses thereof” (Samumed, LLC, priority 2015, dated 2019).

Assays:
Format in all cases: cell-based
SW480 colon cancer cells = experiment: Cell viability assay (CellTiter-Blue), four days; settings: Homo sapiens, 96 h; for EC50: CellTiter-Blue cell viability; for inhibition at 10 µM: read-out: percent inhibition at 10 μM (given for EC50 of >10 μM)
Procedure, shortened: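 Four-day viability readout in SW480 cells: compound at 0.0045–10 μM (1:3 series), DMSO controls in eight replicates, CellTiter-Blue fluorescence after ~3 h. Values are regression-derived EC50s, or percent inhibition at 10 μM when EC50 exceeds 10 μM.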

[1] = system: primary human fibroblasts derived from IPF patients (LL29 cells), α-smooth muscle actin (αSMA); experiment: Inhibition of the fibrotic process: TGF-β1-treated primary human fibroblasts from IPF patients, αSMA staining; settings: Fibroblast, 96 h, 4 days; for EC50: LL29 fibroblasts from IPF patients, TGF-β1 20 ng/mL, inhibition of fibrotic process; for inhibition at 10 µM: LL29 fibroblasts, TGF-β1 treated, read-out: percent inhibition at 10 μM (given for EC50 of >10 μM)
Procedure, shortened: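 Potency reflects suppression of TGF-β1-driven αSMA expression in IPF patient fibroblasts over 4 days. Values are EC50s from normalized αSMA-positive cell counts, with % inhibition at 10 μM when EC50 exceeded 10 μM.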

[2] = system: Wnt activity (Sp5-Luc reporter, SW480 colon carcinoma cells); experiment: Screening assay for Wnt activity: Sp5-Luc reporter gene assay in SW480 cells; settings: Homo sapiens; for inhibition at 10 µM: 10 μM compound, read-out: percent inhibition at 10 μM (given for EC50 of >10 μM); for EC50: overnight incubation, 10-point dose-response from 10 μM
Procedure, shortened: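 Luminescence (BrightGlo) read after overnight 37 °C exposure of Sp5-Luc SW480 reporter cells, 4,000/well in 1% FBS, to compound dosed 1:3 over 10 points from 10 μM with 0.1% DMSO. Values normalized to DMSO-only cells, fitted with variable-slope four-parameter model; where EC50 exceeds 10 μM, % inhibition at 10 μM reported.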

Row | SMILES | EC50 (SW480 colon cancer cells) | EC50 [2] | inhibition at 10 µM (SW480 colon cancer cells) | EC50 [1] | inhibition at 10 µM [1] | inhibition at 10 µM [2]
1 | Cc1cn(-c2ccnc3[nH]c(-c4n[nH]c5ccc(C6=CCNCC6)nc45)nc23)cn1 [Compound 618, 3-(7-(4-Methyl-1H-imidazol-1-yl)-3H-imidazo[4,5-b]pyridin-2-yl)-5-(1,2,3,6-tetrahydropyridin-4-yl)-1H-pyrazolo[4,3-b]pyridine] | > 10 µM | > 10 µM | 2.8% | > 10 µM | 0% | 8.7%
2 | Cc1cn(-c2ccnc3[nH]c(-c4n[nH]c5ccc(-c6cncc(CN7CCCC7)c6)nc45)nc23)cn1 [Compound 210, 3-(7-(4-methyl-1H-imidazol-1-yl)-3H-imidazo[4,5-b]pyridin-2-yl)-5-(5-(pyrrolidin-1-ylmethyl)pyridin-3-yl)-1H-pyrazolo[4,3-b]pyridine] | > 10 µM | > 10 µM | 12.6% | 6.74 µM |  | 31.5%
3 | Cc1cn(-c2ccnc3[nH]c(-c4n[nH]c5ccc(-c6cncc(N7CC(N)C7)n6)nc45)nc23)cn1 [Compound 622, 1-(6-(3-(7-(4-Methyl-1H-imidazol-1-yl)-3H-imidazo[4,5-b]pyridin-2-yl)-1H-pyrazolo[4,3-b]pyridin-5-yl)pyrazin-2-yl)azetidin-3-amine] | > 10 µM | > 10 µM | 4.7% | 4.82 µM |  | 9.8%
4 | Oc1cncc(-c2ccc3[nH]nc(-c4nc5c(-c6cccnc6)ccnc5[nH]4)c3n2)c1 [Compound 565, 5-(3-(7-(Pyridin-3-yl)-3H-imidazo[4,5-b]pyridin-2-yl)-1H-pyrazolo[4,3-b]pyridin-5-yl)pyridin-3-ol] | > 10 µM | > 10 µM | 5.9% | > 10 µM | 0% | 14.1%
5 | CS(=O)(=O)NCc1cc(F)cc(-c2ccnc3[nH]c(-c4n[nH]c5ccc(-c6cncc(NC(=O)CC7CCNCC7)c6)nc45)nc23)c1 [Compound 769, N-(5-(3-(7-(3-Fluoro-5-(methylsulfonamidomethyl)phenyl)-3H-imidazo[4,5-b]pyridin-2-yl)-1H-pyrazolo[4,3-b]pyridin-5-yl)pyridin-3-yl)-2-(piperidin-4-yl)acetamide] | > 10 µM | > 10 µM | 8.5% | 4.46 µM |  | 12.1%
6 | CC(C)C(=O)Nc1cncc(-c2ccc3[nH]nc(-c4nc5c(N6CCN(C)CC6)ccnc5[nH]4)c3n2)c1 [Compound 233, N-(5-(3-(7-(4-methylpiperazin-1-yl)-3H-imidazo[4,5-b]pyridin-2-yl)-1H-pyrazolo [4,3-b]pyridin-5-yl)pyridin-3-yl)isobutyramide] | > 10 µM | > 10 µM | 0% | 4.84 µM |  | 2.3%
7 | C1=C(c2ccc3[nH]nc(-c4nc5c(-c6ccc7c(c6)OCO7)ccnc5[nH]4)c3n2)CCNC1 [Compound 1109, 3-(7-(Benzo[d][1,3]dioxol-5-yl)-3H-imidazo[4,5-b]pyridin-2-yl)-5-(1,2,3,6-tetrahydropyridin-4-yl)-1H-pyrazolo[4,3-b]pyridine] | > 10 µM | > 10 µM | 10.9% | 6.2 µM |  | 14.5%

Continued, in another order:

Row | EC50 (SW480 colon cancer cells) | EC50 [2] | SMILES | inhibition at 10 µM (SW480 colon cancer cells) | EC50 [1] | inhibition at 10 µM [1] | inhibition at 10 µM [2]
8 | > 10 µM | > 10 µM | Cc1ccncc1-c1ccc2[nH]nc(-c3nc4c(-c5ccncc5)ccnc4[nH]3)c2n1 [Compound 117, 5-(4-methylpyridin-3-yl)-3-(7-(pyridin-4-yl)-3H-imidazo[4,5-b]pyridin-2-yl)-1H-pyrazolo[4,3-b]pyridine] | 1.7% | > 10 µM | 2.8% | 4.8%
9 | > 10 µM | > 10 µM | Cc1ccc(-c2ccnc3[nH]c(-c4n[nH]c5ccc(-c6cncc(NC(=O)C7CCCC7)c6)nc45)nc23)s1 [Compound 414, N-(5-(3-(7-(5-Methylthiophen-2-yl)-3H-imidazo[4,5-b]pyridin-2-yl)-1H-pyrazolo[4,3-b]pyridin-5-yl)pyridin-3-yl)cyclopentanecarboxamide] | 14.7% | 0.066 µM |  | 47%
10 | > 10 µM | > 10 µM | CCC(=O)Nc1cncc(-c2ccc3[nH]nc(-c4nc5c(-c6ccsc6)ccnc5[nH]4)c3n2)c1 [Compound 281, N-(5-(3-(7-(thiophen-3-yl)-3H-imidazo[4,5-b]pyridin-2-yl)-1H-pyrazolo[4,3-b]pyridin-5-yl)pyridin-3-yl)propionamide] | 24.2% | > 10 µM | 21.4% | 28.3%
11 | > 10 µM | > 10 µM | CN1CCN(c2ccnc3[nH]c(-c4n[nH]c5ccc(-c6cncnc6)nc45)nc23)CC1 [Compound 251, 3-(7-(4-Methylpiperazin-1-yl)-3H-imidazo[4,5-b]pyridin-2-yl)-5-(pyrimidin-5-yl)-1H-pyrazolo[4,3-b]pyridine] | 0% | 4.36 µM |  | 16.5%
12 | > 10 µM | > 10 µM | c1ccc(COc2cncc(-c3ccc4[nH]nc(-c5nc6c(-c7ccncc7)ccnc6[nH]5)c4n3)c2)cc1 [Compound 582, 5-(5-(Benzyloxy)pyridin-3-yl)-3-(7-(pyridin-4-yl)-3H-imidazo[4,5-b]pyridin-2-yl)-1H-pyrazolo[4,3-b]pyridine] | 2.6% | 0.648 µM |  | 5.8%
13 | 3.87 µM | 3.57 µM | CN(C)CCOc1cncc(-c2ccc3[nH]nc(-c4nc5c(-c6cccs6)ccnc5[nH]4)c3n2)c1 [Compound 707, N,N-Dimethyl-2-((5-(3-(7-(thiophen-2-yl)-3H-imidazo[4,5-b]pyridin-2-yl)-1H-pyrazolo[4,3-b]pyridin-5-yl)pyridin-3-yl)oxy)ethan-1-amine] |  | 2.43 µM |  | 
14 | > 10 µM | > 10 µM | c1cc(-c2ccc3c(c2)OCO3)c2nc(-c3n[nH]c4ccc(C5CCNCC5)nc34)[nH]c2n1 [Compound 1108, 3-(7-(Benzo[d][1,3]dioxol-5-yl)-3H-imidazo[4,5-b]pyridin-2-yl)-5-(piperidin-4-yl)-1H-pyrazolo[4,3-b]pyridine] | 0% | > 10 µM | 0% | 9.3%
15 | > 10 µM | > 10 µM | CCCC(=O)Nc1cncc(-c2ccc3[nH]nc(-c4nc5c(-c6cc(F)cc(CNS(C)(=O)=O)c6)ccnc5[nH]4)c3n2)c1 [Compound 493, N-(5-(3-(7-(3-fluoro-5-(methylsulfonamidomethyl)phenyl)-3H-imidazo[4,5-b]pyridin-2-yl)-1H-pyrazolo[4,3-b]pyridin-5-yl)pyridin-3-yl)butyramide] | 3.9% | > 10 µM | 0% | 14.8%
16 | > 10 µM | > 10 µM | c1cncc(-c2ccnc3[nH]c(-c4n[nH]c5ccc(-c6cncc(OC7CCCCC7)c6)nc45)nc23)c1 [Compound 559, 5-(5-(Cyclohexyloxy)pyridin-3-yl)-3-(7-(pyridin-3-yl)-3H-imidazo[4,5-b]pyridin-2-yl)-1H-pyrazolo[4,3-b]pyridine] | 4% | 5.18 µM |  | 12.4%
